The results in this text go back to patent US5049560A, “Sulfonyl derivatives of thieno-triazolo-diazepines useful as anti-PAF and anti-ischemic agents” (priority 1989, dated 1991).

What is called IC50 is the midpoint of a concentration-inhibition curve. High values mean weaker potency in that assay, low ones greater potency in that assay.

The test system of one test is omega 3 sites. The experiment in a line: Global ischemia on gerbils. It counts as in vivo, gerbil. Particulars: Meriones unguiculatus, 168 h; both carotides clamped 10 minutes; hippocampes taken one week later; 3H-PK 11195 2 nM; compared to control; significance marks (*, **, ***, NS) given; read-out: Global protection in %. Here is the method:
3) Global ischemia on gerbils
For this test, males gerbilles were anaesthetized with brietal at the doses of 35 mg/kg IP; thereafter, both carotides were clamped for 10 minutes, then the clamping was released. Treated animals received each 10 mg/kg of the compounds of one of the examples.
One week later, the animals were killed and both hippocampes were taken, weighed and frozen at -80° C.
After crushing with 1 ml of TRIS-HCl buffer pH 7.4 for 30 secondes, aliquots of each 50 μl of this preparation were incubed in each 1 ml of TRIS-HCl buffer containing ^3 H-PK 11195 at 2 nM (90 Ci/mmole, NENE, Germany) for 1 hour at 25° C. For each preparation, 3 determinations were made. The density of omega 3 sites (marked by the specific ^3 H PK 11195 marker) are expressed in f-moles of PK 11195/mg of fresh tissues and converted in percentage of protection compared to control.

The test system of test [1] is platelet aggregation induced by PAF. The test is described as follows: Inhibition of platelet aggregation induced by PAF. Particulars: Oryctolagus cuniculus, rabbit platelets, aggregometer at 57° C. [sic]. It counts as cell-based, New Zealand rabbits. As to the method:
1) Inhibition of platelet aggregation induced by PAF
This experimentation was conducted according to the method of R. KINLOUGH. RATHBONE, J. P. CAZENAVE, M. PACKHAM and F. MUSTARD, Lab. Invest. 48, 98, 1980. In this test, New Zealand rabbits were used (male New Zealand rabbits of an average weight of 5 kg).
The determinations are made on a chrono-log Coultronics aggregometer, at […] coupled with a graphic recorder; the results of these determinations (in molecular concentration) are reported on the table I on the central column.

In the case of `Cc1nnc2n1-c1sc3c(c1C(c1ccccc1Cl)=NC2)CCN(S(=O)(=O)c1c(Cl)cc(Cl)cc1Cl)C3` [Example 3, 6-(2-chlorophenyl)-9-(2,4,6-trichloro)phenylsulphonyl-7,8,9,10-tetrahydro-1-methyl 4H-pyrido [4',3':4,5] thieno [3,2-f] 1,2,4-triazolo [4,3-a] 1,4-diazepine], the inhibition in vivo at 10 mg/kg in the test with omega 3 sites is 33.3%. For the same molecule, the IC50 in test [1] was 37.1 nM.
For `Cc1nnc2n1-c1sc3c(c1C(c1ccccc1Cl)=NC2)CCN(S(=O)(=O)c1cccs1)C3` [Example 11, 6-(2-chlorophenyl)-9-α-thienylphenylsulphonyl-7,8,9,10-tetrahydro-1-methyl 4H-pyrido [4',3':4,5] thieno [3,2-f] 1,2,4-triazolo [4,3-a] 1,4-diazepine], in that order: 32.7% and 144 nM.
Consider `Cc1nnc2n1-c1sc3c(c1C(c1ccccc1Cl)=NC2)CCN(S(=O)(=O)c1ccc2ccccc2c1)C3` [Example 15, 6-(2-chlorophenyl)-9-(2-naphtyl)sulphonyl-7,8,9,10-tetrahydro-1-methyl-4H-pyrido [4',3':4,5] thieno [3,2-f] 1,2,4-triazolo [4,3-a] 1,4-diazepine], for which, in the test on omega 3 sites, the inhibition in vivo at 10 mg/kg was 34.8%. For the same molecule, the IC50 in test [1] worked out at 431 nM.
For `Cc1nnc2n1-c1sc3c(c1C(c1ccccc1Cl)=NC2)CCN(S(=O)(=O)c1ccc(C(C)(C)C)cc1)C3` [Example 6, 6-(2-chlorophenyl)-9-(4-tert.butyl)phenylsuphonyl-7,8,9,10-tetrahydro-1-methyl 4H-pyrido [4',3':4,5] thieno [3,2-f] 1,2,4-triazolo [4,3-a] 1,4-diazepine], in that order: 13.8% and 117 nM.
For `Cc1nnc2n1-c1sc3c(c1C(c1ccccc1Cl)=NC2)CCN(S(=O)(=O)c1ccc(Oc2ccc(C(=O)O)cc2)cc1)C3` [Example 17, 6-(2-chlorophenyl)-9-[4-(4'-(carboxy)phenyloxy)phenyl] sulphonyl-7,8,9,10-tetrahydro-1-methyl-4H-pyrido [4',3':4,5] thieno [3,2-f] 1,2,4-triazolo [4,3-a] 1,4-diazepine] the same measures were 7.8% and 472 nM.
For `COc1ccc(S(=O)(=O)N2CCc3c(sc4c3C(c3ccccc3Cl)=NCc3nnc(C)n3-4)C2)cc1OC` [Example 7, 6-(2-chlorophenyl)-9-(3,4-dimethoxy)phenylsulphonyl-7,8,9,10-tetrahydro-1-methyl 4H-pyrido [4',3':4,5] thieno [3,2-f] 1,2,4-triazolo [4,3-a] 1,4 diazepine] the same measures were 26.6% and 119 nM.
Take `Cc1nnc2n1-c1sc3c(c1C(c1ccccc1Cl)=NC2)CCN(S(=O)(=O)c1ccco1)C3` [Example 12, 6-(2-chlorophenyl)-9-α-furylphenylsulphonyl-7,8,9,10-tetrahydro-1-methyl 4H-pyrido [4',3':4,5] thieno [3,2-f] 1,2,4-triazolo [4,3-a] 1,4-diazepine]: the inhibition in vivo at 10 mg/kg with omega 3 sites is 21.4%. The molecule also gave an IC50 in test [1] of 110 nM.
Take `Cc1nnc2n1-c1sc3c(c1C(c1ccccc1Cl)=NC2)CCN(S(=O)(=O)c1ccc[nH]1)C3` [Example 13, 6-(2-chlorophenyl)-9-(α-pyrrolyl)sulphonyl-7,8,9,10-tetrahydro-1-methyl-4H-pyrido [4',3':4,5] thieno [3,2-f] 1,2,4-triazolo [4,3-a] 1,4-diazepine]: the inhibition in vivo at 10 mg/kg in the test on omega 3 sites was 29.3%. Moreover, the IC50 in test [1] came out at 215 nM.
Regarding `Cc1nnc2n1-c1sc3c(c1C(c1ccccc1Cl)=NC2)CCN(S(=O)(=O)C(C)C)C3` [Example 20, 6-(2-chlorophenyl)-9-isopropylsulfonyl-7,8,9,10-tetrahydro-1-methyl-4H-pyrido [4',3':4,5] thieno [3,2-f] 1,2,4-triazolo [4,3-a] 1,4-diazepine], the inhibition in vivo at 10 mg/kg in the test with omega 3 sites turned out to be 47.5%. Further, the IC50 in test [1] is 517 nM.
For `Cc1nnc2n1-c1sc3c(c1C(c1ccccc1Cl)=NC2)CCN(S(=O)(=O)c1ccc(C(=O)O)cc1)C3` [Example 16, 6-(2-chlorophenyl)-9-(4-carboxy)phenylsulphonyl-7,8,9,10-tetrahydro-1-methyl-4H-pyrido [4',3':4,5] thieno [3,2-f] 1,2,4-triazolo [4,3-a] 1,4-diazepine], in that order: 23.9% and 20.1 nM.
For `Cc1nnc2n1-c1sc3c(c1C(c1ccccc1Cl)=NC2)CCN(S(=O)(=O)c1cccc2cccnc12)C3` [Example 14, 6-(2-chlorophenyl)-9-(8-quinolyl)sulfonyl-7,8,9,10-tetrahydro-1-methyl-4H-pyrido-[4',3':4,5] thieno [3,2-f] 1,2,4-triazolo [4,3-a] 1,4-diazepine] the same measures were 17.4% and 65 nM.
For `Cc1nnc2n1-c1sc3c(c1C(c1ccccc1Cl)=NC2)CCN(S(=O)(=O)c1ccccc1)C3` [Example 2, 6-(2-chlorophenyl)-9-phenylsulphonyl-7,8,9,10-tetrahydro-1-methyl 4H-pyrido [4',3':4,5] thieno [3,2-f] 1,2,4-triazolo [4,3-a] 1,4-diazepine] the same measures were 38.3% and 225 nM.
`COc1cc(OC)c(S(=O)(=O)N2CCc3c(sc4c3C(c3ccccc3Cl)=NCc3nnc(C)n3-4)C2)cc1SC` [Example 18, 6-(2-chlorophenyl)-9-[5-methylthio 2,4-dimethoxy]phenyl sulphonyl-7,8,9,10-tetrahydro-1-methyl-4H-pyrido [4',3':4,5] thieno [3,2-f] 1,2,4-triazolo [4,3-a] 1,4-diazepine]: in the test with omega 3 sites, the inhibition in vivo at 10 mg/kg came out at 10%. Further, half-maximal inhibition in test [1] (IC50) was put at 22.2 nM.
Take `COc1ccc(S(=O)(=O)N2CCc3c(sc4c3C(c3ccccc3Cl)=NCc3nnc(C)n3-4)C2)cc1` [Example 9, 6-(2-chlorophenyl)-9-(4-methoxy)phenylsulphonyl-7,8,9,10-tetrahydro-1-methyl 4H-pyrido [4',3':4,5] thieno [3,2-f] 1,2,4-triazolo [4,3-a] 1,4-diazepine]: the inhibition in vivo at 10 mg/kg in the test on omega 3 sites was 9.4%. This molecule also displayed an IC50 in test [1] of 122 nM.
For `COc1cc(OC)c(S(=O)(=O)N2CCc3c(sc4c3C(c3ccccc3Cl)=NCc3nnc(C)n3-4)C2)cc1S(C)(=O)=O` [Example 19, 6-(2-chlorophenyl)-9-[5-mesyl 2,4-dimethoxy]phenylsulphonyl-7,8,9,10-tetrahydro-1-methyl-4H-pyrido [4',3':4,5] thieno [3,2-f] 1,2,4-triazolo [4,3-a] 1,4-diazepine], in that order: 8.4% and 375 nM.
For `Cc1cc(C)c(S(=O)(=O)N2CCc3c(sc4c3C(c3ccccc3Cl)=NCc3nnc(C)n3-4)C2)c(C)c1` [Example 8, 6-(2-chlorophenyl)-9-(2,4,6-trimethyl)phenylsulphonyl-7,8,9,10-tetrahydro-1-methyl 4H-pyrido [4',3':4,5] thieno [3,2-f] 1,2,4-triazolo [4,3-a] 1,4-diazepine] the same measures were 30.5% and 25.1 nM.
